Laboratory results: article PMC10745721, “Chemical Comparison and Identification of Xanthine Oxidase Inhibitors of Dioscoreae Hypoglaucae Rhizoma and Dioscoreae Spongiosae Rhizoma by Chemometric Analysis and Spectrum–Effect Relationship” (Molecules, 2023)

Target: xanthine oxidase (Bos taurus, UniProt P80457)
Assay: xanthine oxidase inhibitory assay in vitro (absorbance at 295 nm, uric acid from xanthine)
Type: biochemical
Details: pure compounds, five concentrations each; read-out: IC50 of xanthine oxidase inhibition
Description: For xanthine oxidase inhibition assay, 600 μL of supernatant was concentrated in a Termovap Sample Concentrator (Hangzhou Miulab Instruments Co., Ltd., Hangzhou, China) at 30 °C until elimination of solvent. The residue was redissolved in 600 μL PBS.
The xanthine oxidase inhibitory activities of DH and DS samples were determined by xanthine oxidase inhibitory activity assay in vitro [25], which was based on the increase in absorbance at 295 nm due to the production of uric acid from xanthine. In brief, 50 µL of DH or DS samples, 30 µL of phosphate buffer (70 Mm, pH 7.5), and 40 µL of xanthine oxidase (0.05 U/mL) were added into a 96-well plate. After preincubation at 25 °C for 8 min, 60 µL of xanthine (300 µM) was added. After incubation at 25 °C for 15 min, the reaction was stopped by adding 20 µL of HCl (1.0 M). The absorbance of the mixture solution was recorded at 295 nm by a microplate reader.
The control sample was prepared by adding PBS instead of tested sample. The background sample was prepared by replacing tested sample with the same volume of PBS. The blank sample was prepared by adding PBS instead of xanthine oxidase solution. All experiments were repeated three times. The inhibition ratio of xanthine oxidase was calculated as follows:Inhibition ratio (%) = [1 − (test sample-background sample/control sample-blank sample)] × 100
DH and DS samples were prepared in a series of concentrations. The xanthine oxidase inhibitory activities of DH and DS samples were evaluated by IC50 values (the concentration of the sample inhibited 50% the activity of the xanthine oxidase, and the IC50 values were calculated by a logarithmic regression curve. As DH and DS samples were mixtures of multiple constituents, the molar concentrations were uncertain. Thus, the IC50 values of anti-xanthine oxidase activities of DH and DS samples were expressed as mg/mL raw drug equivalents.

xanthine oxidase, sequence (P80457 whole entry): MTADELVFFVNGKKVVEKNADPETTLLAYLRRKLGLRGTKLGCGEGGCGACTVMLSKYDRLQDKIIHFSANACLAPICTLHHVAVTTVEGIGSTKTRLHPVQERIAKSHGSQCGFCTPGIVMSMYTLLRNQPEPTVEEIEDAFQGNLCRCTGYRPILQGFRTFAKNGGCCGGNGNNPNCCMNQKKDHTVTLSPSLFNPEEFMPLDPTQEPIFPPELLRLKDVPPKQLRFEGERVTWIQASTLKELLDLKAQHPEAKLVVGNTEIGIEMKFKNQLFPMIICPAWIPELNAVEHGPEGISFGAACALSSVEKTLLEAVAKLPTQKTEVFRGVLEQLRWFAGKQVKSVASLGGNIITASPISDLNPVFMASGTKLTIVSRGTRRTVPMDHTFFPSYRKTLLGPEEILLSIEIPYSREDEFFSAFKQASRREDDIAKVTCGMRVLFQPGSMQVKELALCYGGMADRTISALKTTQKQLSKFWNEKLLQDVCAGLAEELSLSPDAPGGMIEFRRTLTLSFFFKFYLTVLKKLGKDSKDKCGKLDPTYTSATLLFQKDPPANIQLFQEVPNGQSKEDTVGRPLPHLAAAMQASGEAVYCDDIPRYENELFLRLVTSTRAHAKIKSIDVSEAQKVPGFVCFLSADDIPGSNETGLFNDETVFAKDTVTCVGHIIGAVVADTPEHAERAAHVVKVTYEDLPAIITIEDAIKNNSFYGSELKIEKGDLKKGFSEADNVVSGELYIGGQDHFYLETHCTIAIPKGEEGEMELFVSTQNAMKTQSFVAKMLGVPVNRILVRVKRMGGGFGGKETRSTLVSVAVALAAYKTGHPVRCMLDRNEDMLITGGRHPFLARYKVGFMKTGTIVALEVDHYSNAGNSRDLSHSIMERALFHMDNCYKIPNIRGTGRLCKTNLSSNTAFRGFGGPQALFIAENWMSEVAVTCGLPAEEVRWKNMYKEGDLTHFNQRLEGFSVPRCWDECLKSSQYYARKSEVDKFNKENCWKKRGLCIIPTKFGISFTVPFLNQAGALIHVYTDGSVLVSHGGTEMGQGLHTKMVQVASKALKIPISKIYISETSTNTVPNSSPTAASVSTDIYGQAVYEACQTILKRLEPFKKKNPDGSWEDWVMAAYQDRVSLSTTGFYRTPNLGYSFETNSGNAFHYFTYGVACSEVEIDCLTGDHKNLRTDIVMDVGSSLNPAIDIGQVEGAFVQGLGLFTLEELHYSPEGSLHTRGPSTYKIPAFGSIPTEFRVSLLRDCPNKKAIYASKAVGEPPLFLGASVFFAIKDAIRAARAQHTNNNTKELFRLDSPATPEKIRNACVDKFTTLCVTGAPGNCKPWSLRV

`CC1=C(CC[C@@H](C)CO[C@@H]2O[C@H](CO)[C@@H](O)[C@H](O)[C@H]2O)OC2CC3C4CC=C5CC(O[C@@H]6O[C@H](CO)[C@@H](O)[C@H](O[C@@H]7O[C@H](CO)[C@@H](O)[C@H](O)[C@H]7O)[C@H]6O[C@@H]6O[C@@H](C)[C@H](O)[C@@H](O)[C@H]6O)CC[C@]5(C)C4CC[C@]3(C)C12` (stereo partly shown) [pseudoprogracillin] and `CC(CCC1(O)OC2CC3C4CC=C5CC(OC6OC(CO)C(O)C(OC7OC(CO)C(O)C(O)C7O)C6OC6OC(C)C(O)C(O)C6O)CCC5(C)C4CCC3(C)C2C1C)COC1OC(CO)C(O)C(O)C1O` (stereo not shown) [protogracillin] are within 1.5-fold of each other in IC50: 250 µM for the first, 190 µM for the second.

`CC(CCC1(O)OC2CC3C4CC=C5CC(OC6OC(CO)C(OC7OC(C)C(O)C(O)C7O)C(O)C6OC6OC(C)C(O)C(O)C6O)CCC5(C)C4CCC3(C)C2C1C)COC1OC(CO)C(O)C(O)C1O` (stereo not shown) [protodioscin] and `CO[C@]1(CC[C@@H](C)CO[C@@H]2O[C@H](CO)[C@@H](O)[C@H](O)[C@H]2O)O[C@H]2C[C@H]3[C@@H]4CC=C5C[C@@H](O[C@@H]6O[C@H](CO)[C@@H](O[C@@H]7O[C@@H](C)[C@H](O)[C@@H](O)[C@H]7O)[C@H](O)[C@H]6O[C@@H]6O[C@@H](C)[C@H](O)[C@@H](O)[C@H]6O)CC[C@]5(C)[C@H]4CC[C@]3(C)[C@H]2[C@@H]1C` [methyl protodioscin] are within 1.5-fold of each other in IC50: 200 µM for the first, 220 µM for the second.
